Reference: patent publication US20130164386A1, “Targeting the Alpha3 Subnit of Na+-K+-ATPase for the Treatment of Cough with Sulfenamides” (THE JOHNS HOPKINS UNIVERSITY, priority 2010, published 2013)
Read-outs that look alike come from different tables or passages of the source.

Columns and labels:
[1] = test system: citric acid evoked coughing; type: in vivo, guinea pig; details: anesthetized guinea pigs
[2] = test system: citric acid evoked coughing; assay: citric acid evoked coughing in conscious (unanesthetized) guinea pigs; type: in vivo, guinea pig; details: 1 mg/mL, nebulized, delivered as an aerosol to the airways, listed as acid-activated omeprazole
[3] = test system: Na+-K+ ATPase activity of cough receptor terminations; assay: intravital FM2-10 styryl dye labeling of cough receptor terminals in tracheal mucosa; parameters: species or system guinea pig; details: data not shown
Excerpt: FIGS. 1A-1D show: (A) selective immunohistochemical labeling of cough receptor terminations in the guinea pig tracheal mucosa with antisera to the alpha3 subunit of Na+K+-ATPase; (B) the cough receptor terminals innerating the tracheal mucosa also are brilliantly and selectively labeled intravitally by the styryl dye FM2-10. This staining method depends upon active Na+-K+ ATPase.
Mazzone, S. B, et al., “Selective Expression of a Sodium Pump Isozyme by Cough Receptors and Evidence for Its Essential Role in Regulating Cough,” J. Neurosci., 2009, 29(43):13662-13671. Thus, the cough receptors uniquely express the alpha3 subunit of the sodium pump in their peripheral terminals, and these terminals display high basal sodium pump activity based on FM2-10 fluorescence.
Referring now to FIGS. 1A-1D, it is shown that: (A) selective immunohistochemical labeling of cough receptor terminations in the guinea pig tracheal mucosa with antisera to the alpha3 subunit of Na+K+-ATPase; (B) the cough receptor terminals innerating the tracheal mucosa also are brilliantly and selectively labeled intravitally by the styryl dye FM2-10. Styryl dyes are known to produce fluorescence intensity proportional to Na+-K+-ATPase activity. Consistent with this notion, FM2-10 labeling of the cough receptor terminations is prevented by the sodium pump inhibitor ouabain (not shown). […]

[4] = test system: citric acid evoked coughing; details: alpha3-selective concentration; cited from earlier work
[5] = test system: Na+-K+ ATPase activity of cough receptor terminations; details: Mazzone et al., J. Neurosci. 2009; cited from earlier work
cough receptors = details: in vitro; alpha3-selective concentration; cited from earlier work

SMILES | citric acid evoked coughing ([1]; topically applied to the tracheal mucosa, 0.1 mM, listed as acid activated omeprazole) | citric acid evoked coughing [2] | blood pressure ([1]; dose 30 μg/kg lv) | citric acid evoked coughing ([1]; dose 30 μg/kg lv) | heart rate ([1]; dose 30 μg/kg lv) | respiratory pattern at eupnea ([1]; dose 30 μg/kg lv) | FM2-10 labeling of the cough receptor terminations [3] | coughing evoked in vivo [4] | FM2-10 labeling of the cough receptors [5] | high frequency action potential patterning in cough receptors (cough receptors)
COc1ccc2[nH]c([S+]([O-])Cc3ncc(C)c(OC)c3C)nc2c1 (stereo not shown) [omeprazole] | nearly abolished | markedly inhibits |  |  |  |  |  |  |  | 
C[C@@H]1O[C@@H](O[C@H]2C[C@@H](O)[C@]3(CO)[C@H]4[C@H](O)C[C@]5(C)[C@@H](C6=CC(=O)OC6)CC[C@]5(O)[C@@H]4CC[C@]3(O)C2)[C@H](O)[C@H](O)[C@H]1O [ouabain] |  |  | no effect | nearly abolished | no effect | no effect | prevented | reduced substantially | prevented | reduced substantially
